Like-named read-outs stand apart in the source and are kept apart here.
Columns and labels:
[1] = Metabolic stability using Human Liver Microsomes (HLM); assay type: in vitro ADME; settings: pooled human liver microsomes, compound 1 μM, 0.3 mg/ml microsomal protein, 1 mM NADPH
Method: Stability Protocol: Metabolic Stability Using Rat Liver Microsomes (RLM) and Human Liver Microsomes (HLM).
This assay was performed using pooled male rat liver microsomes (In-house prepared as per SOP), Pooled Human liver microsomes (XENOTECH; Batch No— H0630-1110189)). The 100 μl reaction contains the compounds at 1 μM, 0.3 mg/ml microsomal protein and both the co-factors (1 mM NADPH) in buffer and the mixture was incubated at different time points (0, 15, 30, 45, 60, & 90 minutes). The reaction was stopped by the addition of equal volume of acetonitrile containing internal standard (Telmesartin). The precipitated protein was removed by centrifugation and the supernatant were analyzed LC/MS-MS method. The percent parent compound remaining was quantified by analysis using following formula (% parent compound remaining=(peak area at Time x/peak area at T0)×100. The intrinsic clearance was calculated using the following formula. CLint,app: (0.693/in vitro t½)(incubation volume/mg of microsomal protein)(45 mg microsomal protein/gram of liver)(20^a g of liver/kg body weight) • a: 20 and 45 g of liver/kg of body weight were used for human and rat, respectively (Lu C et al., DMD, 2006). Bio-analysis: It was performed in Multiple Reaction Monitoring mode (negative mode) using Applied Biosystems API 4000 coupled to Agilent Technologies 1100 series HPLC on a reverse phase column (Zorbax Eclipse XDB C18, 50×4.6 mm, 5 μm). Celecoxib was used as internal standard both in in-vitro and in-vivo experiments. Mobile phase used 0.05% […] water and acetonitrile (10:90) with a flow rate of 0.6 ml/minute. The injection volume was kept as 10 μl.

TrkA kinase = biological target: T1, TrkA kinase (Homo sapiens, UniProt P04629); experiment: In vitro TrkA inhibitory activity using TR-FRET assay; assay type: biochemical; settings: 5 ng TrkA, 500 μM ATP
T1 construct: purchased Upstate, USA
T1 sequence (P04629 33-796): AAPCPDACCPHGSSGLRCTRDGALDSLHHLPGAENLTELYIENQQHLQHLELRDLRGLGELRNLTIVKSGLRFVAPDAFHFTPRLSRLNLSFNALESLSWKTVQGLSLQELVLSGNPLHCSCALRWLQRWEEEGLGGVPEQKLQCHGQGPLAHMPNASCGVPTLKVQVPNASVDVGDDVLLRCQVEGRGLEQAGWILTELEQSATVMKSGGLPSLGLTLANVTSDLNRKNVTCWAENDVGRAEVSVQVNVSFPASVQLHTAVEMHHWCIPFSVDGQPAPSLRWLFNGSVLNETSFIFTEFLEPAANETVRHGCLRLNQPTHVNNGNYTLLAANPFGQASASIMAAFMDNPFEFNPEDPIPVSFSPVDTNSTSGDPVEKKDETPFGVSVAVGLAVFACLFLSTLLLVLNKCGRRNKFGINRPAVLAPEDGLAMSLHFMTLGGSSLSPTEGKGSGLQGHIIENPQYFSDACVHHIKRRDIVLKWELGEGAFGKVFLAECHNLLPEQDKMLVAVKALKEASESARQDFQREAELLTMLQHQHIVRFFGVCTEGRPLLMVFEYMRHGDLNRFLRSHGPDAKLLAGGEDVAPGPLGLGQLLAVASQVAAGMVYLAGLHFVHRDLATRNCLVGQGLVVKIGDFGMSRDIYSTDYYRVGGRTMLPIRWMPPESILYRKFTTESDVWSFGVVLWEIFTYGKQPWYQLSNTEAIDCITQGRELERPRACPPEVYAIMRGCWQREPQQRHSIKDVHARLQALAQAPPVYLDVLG
Method in brief: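 Kinase (5 ng) was preincubated with compound for 30 min at 20-35° C before adding 40 nM ULight poly GT and 500 μM ATP; stopped with EDTA after 30 min. Eu-anti-phosphotyrosine antibody (0.5 nM) was read at 615/665 nm with 1% DMSO final. Compounds showing >25% inhibition at 1 μM went to sigmoidal dose-response IC50 fitting.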

[2] = both bounds given in nm, read-out: TrkA inhibitory activity in-vitro IC50
[3] = read-out: TrkA inhibition in-vitro IC50

Row | Compound | half-life at 1 μM [1] [h] | IC50 (TrkA kinase; [2]) [nM] | IC50 (TrkA kinase; [3]) [nM]
1 | CC(C)(C)S(=O)(=O)NC(=O)c1cnn2ccc(N3CCCC3c3cc(F)cc4c3OCCO4)cc12 (single isomer, unassigned) [Example 50, N-(tert-butylsulfonyl)-5-(2-(7-fluoro-2,3-dihydrobenzo [b][1,4]dioxin-5-yl)pyrrolidin-1-yl)pyrazolo[1,5-a]pyridine-3-carboxamide] | > 1.33 | 100 to 500 | 
2 | CC(C)(C)S(=O)(=O)NC(=O)c1cnn2ccc(N3C[C@@H](F)C[C@@H]3c3cc(F)ccc3F)cc12 (single isomer, unassigned) [Example 52] | > 1.33 |  | ≤ 50
3 | O=C(NS(=O)(=O)c1ccc(F)cc1)c1cnn2ccc(N3CCC[C@@H]3c3cc(F)ccc3F)cc12 [Example 1, (R)-5-(2-(2,5-difluorophenyl)pyrrolidin-1-yl)-N-((4-fluorophenyl)sulfonyl)pyrazolo[1,5-a]pyridine-3-carboxamide] | > 1.33 | 100 to 500 | 
4 | CC(C)(C)S(=O)(=O)NC(=O)c1cnn2ccc(N3CCC[C@@H]3c3cc(F)ccc3F)cc12 [Example 2, (R)-N-(tert-butylsulfonyl)-5-(2-(2,5-difluorophenyl)pyrrolidin-1-yl) pyrazolo[1,5-a]pyridine-3-carboxamide] | > 1.33 |  | ≤ 50
5 | O=C(NS(=O)(=O)c1ccc(N2CC[C@H](O)C2)nc1)c1cnn2ccc(N3CCC[C@@H]3c3cc(F)ccc3F)cc12 [Example 25, 5-((R)-2-(2,5-difluorophenyl)pyrrolidin-1-yl)-N-((6-((S)-3-hydroxypyrrolidin-1-yl)pyridin-3-yl)sulfonyl)pyrazolo[1,5-a] pyridine-3-carboxamide] | > 1.33 |  | ≤ 50
6 | COc1ccc(S(=O)(=O)NC(=O)c2cnn3ccc(N4CCC[C@@H]4c4cc(F)ccc4F)cc23)cn1 [Example 26, (R)-5-(2-(2,5-difluorophenyl)pyrrolidin-1-yl)-N-((6-methoxypyridin-3-yl)sulfonyl) pyrazolo[1,5-a]pyridine-3-carboxamide] | > 1.33 |  | 50 to 100
7 | O=C(NS(=O)(=O)c1ccc2c(c1)OCO2)c1cnn2ccc(N3CCC[C@@H]3c3cc(F)ccc3F)cc12 [Example 35, (R)-N-(benzo[d][1,3]dioxol-5-ylsulfonyl)-5-(2-(2,5-difluorophenyl)pyrrolidin-1-yl)pyrazolo[1,5-a]pyridine-3-carboxamide] | > 1.33 |  | 50 to 100
8 | CC(C)(C)S(=O)(=O)NC(=O)c1cnn2ccc(N3CCC[C@@H]3c3cc(F)cc(OC(F)F)c3)cc12 [Example 43, (R)-N-(tert-butylsulfonyl)-5-(2-(3-(difluoromethoxy)-5-fluorophenyl)pyrrolidin-1-yl) pyrazolo[1,5-a]pyridine-3-carboxamide] | > 1.33 | 100 to 500 | 
9 | CC(C)(C)S(=O)(=O)NC(=O)c1cnn2ccc(N3CCC[C@@H]3c3cc(F)ccc3OCC3CC3)cc12 [Example 46, (R)-N-(tert-butylsulfonyl)-5-(2-(2-(cyclopropylmethoxy)-5-fluorophenyl)pyrrolidin-1-yl)pyrazolo[1,5-a]pyridine-3-carboxamide] | > 1.33 |  | 50 to 100
10 | CC(C)(C)S(=O)(=O)NC(=O)c1cnn2ccc(N3CCC[C@@H]3c3cc(F)ccc3OC3CCOC3)cc12 (stereo partly drawn) [Example 59, N-(tert-butylsulfonyl)-5-((2R)-2-(5-fluoro-2-((tetrahydrofuran-3-yl)oxy)phenyl)pyrrolidin-1-yl)pyrazolo[1,5-a]pyridine-3-carboxamide] | > 1.33 |  | ≤ 50
11 | COCCOc1ccc(F)cc1[C@H]1CCCN1c1ccn2ncc(C(=O)NS(=O)(=O)C(C)(C)C)c2c1 [Example 65, (R)-N-(tert-butylsulfonyl)-5-(2-(5-fluoro-2-(2-methoxyethoxy)phenyl)pyrrolidin-1-yl)pyrazolo [1,5-a]pyridine-3-carboxamide] | > 1.33 |  | ≤ 50
12 | CN(C)S(=O)(=O)NC(=O)c1cnn2ccc(N3CCC[C@@H]3c3cc(F)ccc3F)cc12 [Example 76, (R)-5-(2-(2,5-difluorophenyl)pyrrolidin-1-yl)-N—(N, N-dimethylsulfamoyl)pyrazolo[1,5-a]pyridine-3-carboxamide] | > 1.33 |  | ≤ 50
13 | CCN(C)S(=O)(=O)NC(=O)c1cnn2ccc(N3CCC[C@@H]3c3cc(F)ccc3F)cc12 [Example 77, (R)-5-(2-(2,5-difluorophenyl)pyrrolidin-1-yl)-N-(N-ethyl-N-methylsulfamoyl) pyrazolo[1,5-a]pyridine-3-carboxamide] | > 1.33 |  | ≤ 50
14 | CC(C)S(=O)(=O)NC(=O)c1cnn2ccc(N3C[C@@H](F)C[C@@H]3c3cccc(F)c3)c(F)c12 [Example 122, 4-fluoro-5-((2R,4S)-4-fluoro-2-(3-fluorophenyl)pyrrolidin-1-yl)-N-(isopropylsulfonyl) pyrazolo[1,5-a]pyridine-3-carboxamide] | > 1.33 |  | 
15 | CC(C)(C)S(=O)(=O)NC(=O)c1cnn2ccc(N3CCC[C@@H]3c3cc(F)ccc3OC3CCOCC3)cc12 [Example 124, (R)-N-(tert-butylsulfonyl)-5-(2-(5-fluoro-2-((tetrahydro-2H-pyran-4-yl)oxy)phenyl)pyrrolidin-1-yl)pyrazolo[1,5-a]pyridine-3-carboxamide] | > 1.33 |  | 

Other lines, results leading:

Row | half-life at 1 μM [1] [h] | IC50 (TrkA kinase; [2]) [nM] | IC50 (TrkA kinase; [3]) [nM] | Compound
16 | > 1.33 | 100 to 500 |  | CCS(=O)(=O)NC(=O)c1cnn2ccc(N3CCC[C@@H]3c3cc(F)ccc3F)cc12 [Example 3, (R)-5-(2-(2,5-difluorophenyl)pyrrolidin-1-yl)-N-(ethylsulfonyl)pyrazolo[1,5-a]pyridine-3-carboxamide]
17 | > 1.33 |  | 50 to 100 | N#Cc1cccc(S(=O)(=O)NC(=O)c2cnn3ccc(N4CCC[C@@H]4c4cc(F)ccc4F)cc23)c1 [Example 4, (R)-N-((3-cyanophenyl)sulfonyl)-5-(2-(2,5-difluorophenyl)pyrrolidin-1-yl)pyrazolo[1,5-a]pyridine-3-carboxamide]
18 | > 1.33 |  | ≤ 50 | CCCS(=O)(=O)NC(=O)c1cnn2ccc(N3CCC[C@@H]3c3cc(F)ccc3F)cc12 [Example 10, (R)-5-(2-(2,5-difluorophenyl)pyrrolidin-1-yl)-N-(propylsulfonyl)pyrazolo[1,5-a] pyridine-3-carboxamide]
19 | > 1.33 | 100 to 500 |  | CC1OCCC1S(=O)(=O)NC(=O)c1cnn2ccc(N3CCC[C@@H]3c3cc(F)ccc3F)cc12 (stereo partly drawn) [Example 24, 5-((R)-2-(2,5-difluorophenyl)pyrrolidin-1-yl)-N-((2-methyltetrahydrofuran-3-yl)sulfonyl)pyrazolo[1,5-a] pyridine-3-carboxamide]
20 | > 1.33 |  | ≤ 50 | O=C(NS(=O)(=O)Cc1ccccc1)c1cnn2ccc(N3CCC[C@@H]3c3cc(F)ccc3F)cc12 [Example 40, (R)-N-(benzylsulfonyl)-5-(2-(2,5-difluorophenyl)pyrrolidin-1-yl)pyrazolo[1,5-a]pyridine-3-carboxamide]
21 | > 1.33 |  | 50 to 100 | CCOc1ccc(F)cc1[C@H]1CCCN1c1ccn2ncc(C(=O)NS(=O)(=O)C(C)(C)C)c2c1 [Example 45, (R)-N-(tert-butylsulfonyl)-5-(2-(2-ethoxy-5-fluorophenyl)pyrrolidin-1-yl)pyrazolo[1,5-a]pyridine-3-carboxamide]
22 | > 1.33 |  | ≤ 50 | CC(C)(C)S(=O)(=O)NC(=O)c1cnn2ccc(N3CCC[C@@H]3c3cc(F)ccc3OCCF)cc12 [Example 57, (R)-N-(tert-butylsulfonyl)-5-(2-(5-fluoro-2-(2-fluoroethoxy)phenyl)pyrrolidin-1-yl) pyrazolo[1,5-a]pyridine-3-carboxamide]
23 | > 1.33 |  | ≤ 50 | CC1(S(=O)(=O)NC(=O)c2cnn3ccc(N4C[C@@H](F)C[C@@H]4c4cc(F)ccc4F)cc23)CC1 [Example 74, 5-((2R,4S)-2-(2,5-difluorophenyl)-4-fluoropyrrolidin-1-yl)-N-((1-methylcyclopropyl)sulfonyl)pyrazolo[1,5-a]pyridine-3-carboxamide]
24 | > 1.33 | 100 to 500 |  | CC(C)S(=O)(=O)NC(=O)c1cnn2ccc(N3CCC[C@@H]3c3cc(F)ccc3F)c(F)c12 [Example 75, (R)-5-(2-(2,5-difluorophenyl)pyrrolidin-1-yl)-4-fluoro-N-(isopropylsulfonyl)pyrazolo[1,5-a]pyridine-3-carboxamide]

— patent US10047087B2, “Substituted pyrazolo[1,5-A] pyridine as tropomyosin receptor kinase (TrK) inhibitors” (Dr. Reddy's Laboratories Ltd., priority 2011, dated 2018)
